The target in assay [1] is T1, Endothelin receptor type B (Homo sapiens, UniProt P24530).
T1 sequence (P24530 whole entry): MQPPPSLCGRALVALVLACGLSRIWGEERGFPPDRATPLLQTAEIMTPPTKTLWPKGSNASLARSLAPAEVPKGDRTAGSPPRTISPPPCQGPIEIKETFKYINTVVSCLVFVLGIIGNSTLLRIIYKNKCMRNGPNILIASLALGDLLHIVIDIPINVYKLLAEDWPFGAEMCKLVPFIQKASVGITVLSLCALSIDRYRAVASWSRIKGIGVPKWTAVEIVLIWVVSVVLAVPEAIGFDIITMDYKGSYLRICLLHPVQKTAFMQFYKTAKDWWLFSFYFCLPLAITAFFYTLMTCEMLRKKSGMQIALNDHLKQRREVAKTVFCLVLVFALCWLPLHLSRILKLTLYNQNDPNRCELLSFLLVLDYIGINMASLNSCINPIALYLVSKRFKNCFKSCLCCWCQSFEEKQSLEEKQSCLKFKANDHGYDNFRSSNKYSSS
The assay can be described thus: Binding affinity to ETB receptor (unknown origin) assessed as inhibition constant.

Assay [2] can be described thus: Selectivity ratio of IC50 for human ETA receptor stably expressed in CHO cells Membrane to IC50 human ETB receptor stably expressed in CHO cells Membrane. The note with it: condition cardiovascular disease; condition vascular disease.
The nature of assay [3]: Displacement of [125I]ET-1 from human ETB receptor expressed in green monkey COS7 cells Membrane assessed as inhibition constant incubated for 16 to 18 hrs by gamma counter analysis. It counts as cell membranes. On the technique in general: Displacement assays read how much labelled ligand stays bound in the presence of the test substance.
In assay [4] the target is T2, Endothelin-1 receptor (Homo sapiens, UniProt P25101).
T2 sequence (P25101 whole entry): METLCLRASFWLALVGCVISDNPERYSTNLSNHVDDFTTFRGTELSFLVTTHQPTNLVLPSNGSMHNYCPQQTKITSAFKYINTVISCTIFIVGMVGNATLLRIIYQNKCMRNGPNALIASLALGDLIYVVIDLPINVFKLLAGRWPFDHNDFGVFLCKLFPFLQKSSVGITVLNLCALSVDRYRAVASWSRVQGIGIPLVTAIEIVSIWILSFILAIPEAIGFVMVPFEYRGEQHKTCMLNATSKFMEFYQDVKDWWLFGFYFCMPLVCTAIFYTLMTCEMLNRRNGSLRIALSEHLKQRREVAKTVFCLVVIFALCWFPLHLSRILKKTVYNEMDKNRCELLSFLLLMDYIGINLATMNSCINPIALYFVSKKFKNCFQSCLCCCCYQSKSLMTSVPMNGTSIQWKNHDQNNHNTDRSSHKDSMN
The experiment in a line: Binding affinity to ETA receptor (unknown origin) assessed as inhibition constant.

The target of assay [5] is T2, Endothelin-1 receptor. The experiment in a line: Displacement of [125I]endhothelin-1 from human ETA receptor stably expressed in CHO cells Membrane assessed as inhibition constant at 25 degC incubated for 4 hrs by saturation binding assay. The format is cell membranes.
Assay [6] deals with T1, Endothelin receptor type B. The experiment in a line: Displacement of [125I]endhothelin-3 from human ETB receptor stably expressed in CHO cells Membrane assessed as inhibition constant at 25 degC incubated for 4 hrs by saturation binding assay. The format is cell membranes.
Assay [7] deals with Endothelin receptor type B (Oryctolagus cuniculus, UniProt Q9N0W7). The experiment in a line: Agonist activity to ETB receptor in rabbit pulmonary artery assessed as induction of vessel ring contraction. It counts as functional, tissue-based.
Chain of Endothelin receptor type B (Oryctolagus cuniculus, UniProt Q9N0W7) (Q9N0W7 whole entry): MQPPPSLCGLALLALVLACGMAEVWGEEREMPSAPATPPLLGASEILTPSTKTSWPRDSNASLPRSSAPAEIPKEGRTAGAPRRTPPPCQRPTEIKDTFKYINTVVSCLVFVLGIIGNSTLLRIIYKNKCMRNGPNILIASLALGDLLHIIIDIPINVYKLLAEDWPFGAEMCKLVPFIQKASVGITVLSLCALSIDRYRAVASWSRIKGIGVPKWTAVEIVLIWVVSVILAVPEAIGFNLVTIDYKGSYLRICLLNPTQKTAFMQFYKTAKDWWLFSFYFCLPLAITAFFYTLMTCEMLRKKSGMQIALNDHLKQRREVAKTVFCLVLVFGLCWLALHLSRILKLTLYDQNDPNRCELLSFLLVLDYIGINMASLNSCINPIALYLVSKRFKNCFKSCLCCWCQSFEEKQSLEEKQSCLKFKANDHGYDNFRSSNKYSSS

pEC50, pKi: −log10 of the molar value. Peptide text beside a SMILES is read from it.

The term pKi denotes the negative decadic logarithm of the Ki, by convention in mol/L. As for `CC(C)C[C@H](NC(=O)N1CCCCCC1)C(=O)N[C@H](Cc1cn(C)c2ccccc12)C(=O)N[C@H](Cc1ccccn1)C(=O)O`, the pKi in assay [1] was 5.14.

Consider `Cc1cc2c(cc1CC(=O)c1sccc1S(=O)(=O)Nc1onc(C)c1Cl)OCO2` [SITAXENTAN], for which the “Ratio IC50” value in assay [2] is given as greater than 10000. Besides, the pKi in assay [3] is less than 5.37.

As for `CCCOc1ccc2c(c1)[C@@H](c1ccc(OC)cc1OCC(=O)O)[C@H](C(=O)O)[C@H]2c1ccc2c(c1)OCO2` [SB-209670], the “Ratio IC50” value in assay [2] was found to be 90.

In the case of `COc1cc(OC)nc(O[C@@H](C(=O)O)C(OC)(c2ccccc2)c2ccccc2)n1`, the “Ratio IC50” value in assay [2] stood at 160. The values for the pKi (on Endothelin-1 receptor [4]; in assay [1]) were 8.22 and 6.02, respectively.

Turning to `CCCc1cc(C(=O)O)ccc1OC(C(=O)NS(=O)(=O)c1ccc(C(C)C)cc1)c1ccc2c(c1)OCO2` [L-754142], the results for the pKi (at Endothelin-1 receptor [5]; in assay [6]) were 7.47 and 5.85, respectively. Further, the “Ratio IC50” value in assay [2] worked out at 42.

As for `CCCOc1ccc2c(c1)[C@@H](c1ccc(OC)cc1OCCO)[C@H](C(=O)O)[C@H]2c1ccc2c(c1)OCO2`, the “Ratio IC50” value in assay [2] came out at 1000.

Turning to `CC(C)C[C@@H]1NC(=O)[C@@H](c2cccs2)NC(=O)[C@H](CC(=O)O)NC(=O)[C@H](CC(=O)N2CCN(c3ccccc3)CC2)NC(=O)[C@@H](CC(=O)O)NC(=O)[C@@H](Cc2c[nH]c3ccccc23)NC1=O` (HELM PEPTIDE1{D.D.[O=C([C@H](N[*:1])c1cccs1)[*:2]].L.[dW].[dD]}|CHEM1{[c1ccc(N2CCN([*:1])CC2)cc1]}$PEPTIDE1,CHEM1,1:R3-1:R1|PEPTIDE1,PEPTIDE1,1:R1-6:R2$$$V2.0) [listing 1 of 2 here], the “Ratio IC50” value in assay [2] amounted to 454.

`CC(C)C[C@@H]1NC(=O)[C@@H](c2cccs2)NC(=O)[C@H](CC(=O)O)NC(=O)[C@H](CC(=O)N2CCN(c3ccccc3)CC2)NC(=O)[C@@H](CC(=O)O)NC(=O)[C@@H](Cc2c[nH]c3ccccc23)NC1=O` (HELM PEPTIDE1{D.D.[O=C([C@H](N[*:1])c1cccs1)[*:2]].L.[dW].[dD]}|CHEM1{[c1ccc(N2CCN([*:1])CC2)cc1]}$PEPTIDE1,CHEM1,1:R3-1:R1|PEPTIDE1,PEPTIDE1,1:R1-6:R2$$$V2.0) [listing 2 of 2 here]: the pKi is 8.89 on Endothelin-1 receptor [4] and 6.23 in assay [1].

As usually defined, the pEC50 is −log10 of the EC50, conventionally taken in molar units. Consider `CC[C@H](C)[C@H](NC(=O)[C@@H](NC(=O)[C@H](CC(=O)O)NC(=O)[C@H](CCC(N)=O)NC(=O)[C@H](Cc1cnc[nH]1)NC(=O)[C@@H]1CSSC[C@H](N)C(=O)N[C@@H]([C@@H](C)O)C(=O)N[C@H]2CSSC[C@H](NC(=O)[C@H](CCC(=O)O)NC(=O)[C@H](CCC(=O)O)NC(=O)[C@H](CC(=O)O)NC(=O)[C@H]([C@@H](C)O)NC(=O)[C@H](CCSC)NC(=O)[C@H](CC(=O)O)NC(=O)[C@H](CC(N)=O)NC2=O)C(=O)N[C@@H](CC(C)C)C(=O)N[C@@H](CC(N)=O)C(=O)N[C@@H](Cc2ccccc2)C(=O)N1)C(C)C)C(=O)N[C@@H](Cc1c[nH]c2ccccc12)C(=O)O`, for which the pEC50 in assay [7] was 8.80.

For `COc1ccccc1Oc1c(NS(=O)(=O)c2ccc(C)cn2)nc(-c2ccnc(-c3nnn[nH]3)c2)nc1OCCO` [CLAZOSENTAN], the “Ratio IC50” value in assay [2] is on record as greater than 1000. Also, the pKi in assay [1] was less than 6.89.

The values above are taken from ChEMBL document CHEMBL5678795 (Eur J Pharmacol, 1999).
